According to PubChem BioAssay AID504484 (Southern Research Specialized Biocontainment Screening …, 2011):

The molecules below were run on human PBMC HIV-1 replication, RT activity in supernatant (assay: antiviral activity against X4-tropic HIV-1 in PBMC – cell-based, CXCR4-tropic HIV-1, primary PBMCs, dose response (AID 504484)).
Molecule `Cc1c2c(=O)n(-c3nc4ccccc4s3)nc-2cc(O)n1CCc1cccs1` has an IC50 of 28.7 µM. `Cc1c2c(=O)n(-c3nc4ccccc4s3)nc-2cc(O)n1CCC(C)C` gave an IC50 of 5.68 µM. `Cc1c2c(=O)n(-c3nc4ccccc4s3)nc-2cc(O)n1Cc1ccc(F)cc1` showed an IC50 of 7.48 µM. Molecule `Cc1c2c(=O)n(-c3nc4ccccc4s3)nc-2cc(O)n1C1CC1` has an IC50 of 3.35 µM. Molecule `Cc1c2c(=O)n(-c3nc4ccccc4s3)nc-2cc(O)n1Cc1ccncc1` has an IC50 of 1.81 µM. With `COc1ccc(CCn2c(O)cc3nn(-c4nc5ccccc5s4)c(=O)c-3c2C)cc1` the IC50 was 5.45 µM. Molecule `COc1ccccc1Cn1c(O)cc2nn(-c3nc4ccccc4s3)c(=O)c-2c1C` has an IC50 of 4.42 µM. Work on `Cc1c2c(=O)n(-c3nc4ccccc4s3)nc-2cc(O)n1CCc1ccc(O)cc1` yielded an IC50 of 1.32 µM. `Cc1c2c(=O)n(-c3nc4ccccc4s3)nc-2cc(O)n1Cc1cccnc1` gave an IC50 of 2.86 µM. Molecule `Cc1c2c(=O)n(-c3nc4ccccc4s3)nc-2cc(O)n1Cc1cccs1` has an IC50 of 11.5 µM. For `COc1ccc(Cn2c(O)cc3nn(-c4nc5ccccc5s4)c(=O)c-3c2C)cc1`, the IC50 was 7.71 µM. With `Cc1c2c(=O)n(-c3nc4ccccc4s3)nc-2cc(O)n1Cc1ccccc1Cl` the IC50 was 7.44 µM.
